Experimental data as given in the supplement of paper PMC11061612.

How the values were obtained:
Assay in all cases: Bliss excess, mean over the matrix (fraction); higher = more synergy
[1] = test system: NCI-H716 (Colorectal Carcinoma)
Method in brief: (§1)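 Cell lines grown in DMEM/F12 or RPMI with 10% FBS were plated in 1536-well plates and held 24 hours at 37°C, 5% CO2 before 72 hours of exposure to two-drug dose matrices, with DMSO typically at 0.2%. CellTiter-Glo 2.0 luminescence gave viability, which was converted to inhibition. Vehicle wells were set to 0 and blank wells to 1. Combination Emax is the second-highest inhibition in the matrix, and Bliss excess is the observed combination effect minus the expected EA + EB − EA·EB, where EA and EB are the single-agent effects.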

[2] = test system: CA46 (Burkitt's Lymphoma)
Method in brief: as §1

[3] = test system: JIMT-1 (Breast Carcinoma)
Method in brief: as §1

COLO-792 (Melanoma) = test system: COLO-792 (Melanoma)
Method in brief: as §1

[4] = test system: Jurkat (T-Lymphoblastic Leukemia)
Method in brief: as §1

[5] = test system: NCI-H2228 (Lung Adenocarcinoma)
Method in brief: as §1

[6] = test system: GA-10 (Burkitt's Lymphoma)
Method in brief: as §1

5637 (Bladder Carcinoma) = test system: 5637 (Bladder Carcinoma)
Method in brief: as §1

[7] = test system: DMS-53 (Small Cell Lung Carcinoma)
Method in brief: as §1

[8] = test system: HCC1428 (Breast Carcinoma)
Method in brief: as §1

A101D (Melanoma) = test system: A101D (Melanoma)
Method in brief: as §1

KP-N-YN (Neuroblastoma) = test system: KP-N-YN (Neuroblastoma)
Method in brief: as §1

EW-16 (Ewing's Sarcoma) = test system: EW-16 (Ewing's Sarcoma)
Method in brief: as §1

[9] = test system: CAL-27 (Oral Cavity Carcinoma)
Method in brief: as §1

RH-41 (Rhabdomyosarcoma) = test system: RH-41 (Rhabdomyosarcoma)
Method in brief: as §1

[10] = test system: ESO26 (Esophageal Adenocarcinoma)
Method in brief: as §1

[11] = test system: OACp4C (Esophageal Adenocarcinoma)
Method in brief: as §1

[12] = test system: DU-4475 (Breast Carcinoma)
Method in brief: as §1

AU565 (Breast Carcinoma) = test system: AU565 (Breast Carcinoma)
Method in brief: as §1

[13] = test system: HT55 (Colorectal Carcinoma)
Method in brief: as §1

SMILES	Bliss excess [1]	Bliss excess [2]	Bliss excess [3]	Bliss excess (COLO-792 (Melanoma))	Bliss excess [4]	Bliss excess [5]	Bliss excess [6]	Bliss excess (5637 (Bladder Carcinoma))	Bliss excess [7]	Bliss excess [8]	Bliss excess (A101D (Melanoma))	Bliss excess (KP-N-YN (Neuroblastoma))	Bliss excess (EW-16 (Ewing's Sarcoma))	Bliss excess [9]	Bliss excess (RH-41 (Rhabdomyosarcoma))	Bliss excess [10]	Bliss excess [11]	Bliss excess [12]	Bliss excess (AU565 (Breast Carcinoma))	Bliss excess [13]
Cc1cc2ncnn2cc1Nc1ncc2c(n1)n(C1CCOCC1)c(=O)n2C [AZD7648] + C=CCn1c(=O)c2cnc(Nc3ccc(N4CCN(C)CC4)cc3)nc2n1-c1cccc(C(C)(C)O)n1 [AZD1775] (first compound max 10 µM, partner max 1 µM)	0.0448	-0.0416	0.0463	0.0087	0.0183	0.0384	0.037	0.0026	0.0149	0.0179	0.0275	-0.0428	-0.0471	0.0108	0.0157	-0.0641	-0.0303	-0.051	-0.043	-0.0027
Cc1cc2ncnn2cc1Nc1ncc2c(n1)n(C1CCOCC1)c(=O)n2C [AZD7648] + CCN(CCO)CCCOc1ccc2c(Nc3cc(CC(=O)Nc4cccc(F)c4)[nH]n3)ncnc2c1 [AZD2811] (first compound max 10 µM, 7x7, partner max 1 µM)	0.0292	0.0249	-0.0141	-0.0769	-0.01	-0.0127	0.112	0.0149	-0.0061	0.0436	-0.0404	0.0461	0.0436	0.0107	0.0902	-0.0299	0.0003	0.0035	0.0433	-0.0003
Cc1cc2ncnn2cc1Nc1ncc2c(n1)n(C1CCOCC1)c(=O)n2C [AZD7648] + CN(C)CCCOc1ccc(-c2ccc3ncc4c(c3c2)n(C2CCOCC2)c(=O)n4C)cn1 [AZD0156] (first compound max 10 µM, 7x7, partner max 1 µM)	0.0563	-0.0193	0.0217	0.036	0.0382	0.0707	-0.0067	-0.0004	-0.0087	-0.0052	-0.0016	0.0088	0.0073	0.0004	0.0197	-0.031	0.0043	-0.0209	0.0589	0.0035
Cc1cc2ncnn2cc1Nc1ncc2c(n1)n(C1CCOCC1)c(=O)n2C [AZD7648] + C[C@@H]1COCCN1C2=NC(=NC(=C2)C3(CC3)[S@](=N)(=O)C)C4=C5C=CNC5=NC=C4 [AZD6738] (first compound max 10 µM, 7x7, partner max 10 µM)	0.0287	0.0493	-0.0238	0.0187	0.011	-0.0156	0.0131	-0.0289	0.0179	-0.0086	-0.0272	-0.0083	0.0269	-0.0327	0.0098	-0.0389	-0.0284	0.0019	0.0393	0.0268
Cc1cc2ncnn2cc1Nc1ncc2c(n1)n(C1CCOCC1)c(=O)n2C [AZD7648] + O=C(c1cc(Cc2n[nH]c(=O)c3ccccc23)ccc1F)N1CCN(C(=O)C2CC2)CC1 [Olaparib] (first compound max 10 µM, 7x7, partner max 10 µM)	-0.0056	-0.0518	-0.0191	-0.0435	0.108	-0.0728	-0.0398	-0.0198	-0.0266	-0.0562	-0.0478	0.0332	-0.0484	-0.0448	-0.0293	-0.003	-0.0203	0.0289	-0.0658	-0.0497
Cc1nc(Nc2ncc(C(=O)Nc3c(C)cccc3Cl)s2)cc(N2CCN(CCO)CC2)n1 [Dasatinib] + CC(=O)Nc1cccc(-n2c(=O)n(C3CC3)c(=O)c3c(Nc4ccc(I)cc4F)n(C)c(=O)c(C)c32)c1 [Trametinib] (first compound max 2 µM, 7x7, partner max 1 µM)	-0.0355	-0.0608	0.0276	-0.0726	-0.0746	-0.049	0.0228	0.0923	-0.0423	-0.0334	0.0947	-0.0983	-0.0358	-0.053	-0.0946	-0.0892	0.01	0.011	-0.0345	-0.032
COc1cc2ncnc(Nc3ccc(F)c(Cl)c3)c2cc1OCCCN1CCOCC1 [Gefitinib] + CC(C)n1c(=O)n(C)c2cnc3cc(F)c(-c4ccc(OCCCN5CCCCC5)nc4)cc3c21 [AZD1390] (first compound max 10 µM, 7x7, partner max 0.3 µM)	-0.0353	-0.0529	-0.0248	-0.0612	-0.0756	-0.0704	-0.032	-0.0467	-0.0243	-0.0393	-0.083	-0.045	-0.0566	-0.0668	-0.0378	-0.0832	-0.067	-0.0427	-0.0219	-0.0393
COc1cc2c(cc1OCCCCCOc1cc3c(cc1OC)C(=O)N1C=C(C)C[C@H]1C=N3)N=C[C@@H]1CC(C)=CN1C2=O [SG3199] + O=C(c1cc(Cc2n[nH]c(=O)c3ccccc23)ccc1F)N1CCN(C(=O)C2CC2)CC1 [Olaparib] (first compound max 0.001 µM, 7x7, partner max 10 µM)	-0.0322	-0.0357	-0.0188	-0.0373	0.0874	-0.0607	-0.0335	-0.0278	-0.0259	-0.0676	-0.0365	-0.0387	-0.0066	-0.0664	0.0396	0.0119	-0.0268	0.0741	-0.0315	-0.0358
C[C@@H](c1ccc2nccn2c1)n1nnc2ncc(-c3cnn(C)c3)nc21 [Savolitinib] + CC1(C)CCC(CN2CCN(c3ccc(C(=O)NS(=O)(=O)c4ccc(NCC5CCOCC5)c([N+](=O)[O-])c4)c(Oc4cnc5[nH]ccc5c4)c3)CC2)=C(c2ccc(Cl)cc2)C1 [Venetoclax] (first compound max 1 µM, 7x7, partner max 1 µM)	-0.0423	-0.0366	-0.0354	-0.0601	-0.0723	-0.0605	-0.0485	-0.0523	-0.0446	-0.0219	-0.0598	-0.0927	-0.0873	-0.0571	-0.0483	-0.0547	-0.0367	-0.0533	-0.0255	-0.0562
C[C@@H](c1ccc2nccn2c1)n1nnc2ncc(-c3cnn(C)c3)nc21 [Savolitinib] + Cc1c2c(nn1C)CSCc1cc(n(C)n1)CSc1cc(c3ccccc3c1)OCCCc1c(C(=O)O)n(C)c3c-2c(Cl)ccc13 [AZD5991] (first compound max 1 µM, 7x7, partner max 1 µM)	-0.0572	-0.03	-0.0551	-0.0446	-0.103	-0.0577	-0.0354	-0.0456	-0.0359	-0.0039	-0.0202	0.0028	-0.032	-0.0839	0.0471	-0.0026	-0.0328	0.007	0.0125	-0.0697
